Biological target: T1, Lchα (α-component of the lantibiotic lichenicidin) (Bacillus licheniformis, UniProt P86475)
T1 construct: gene lchA1; mature post-translationally modified lantibiotic, 32 residues (leader removed; N-terminal 2-oxobutyryl, Abu3-Cys7 ring A, four (methyl)lanthionine rings); native purification from culture supernatant, 15N-labelled, no tag
T1 sequence (P86475 43-74): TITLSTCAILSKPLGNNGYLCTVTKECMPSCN
Experiment: NMR titration ([…]-HSQC, Asn32 signal intensity)
Type: binding
Settings: read-out: Kapp

Work on `CC(=O)N[C@H]1[C@H](O[C@H]2[C@H](O[C@H](C)C(=O)N[C@@H](C)C(=O)N[C@H](CCC(=O)N[C@@H](CCCCN)C(=O)N[C@H](C)C(=O)N[C@H](C)C(=O)O)C(=O)O)[C@@H](NC(C)=O)[C@@H](OP(=O)(O)OP(=O)(O)OC/C=C(/C)CC/C=C(/C)CC/C=C(/C)CC/C=C(/C)CC/C=C(/C)CC/C=C(/C)CC/C=C(/C)CC/C=C(/C)CC/C=C(\C)CC/C=C(\C)CCC=C(C)C)O[C@@H]2CO)O[C@H](CO)[C@@H](O)[C@@H]1O` [lipid II] yielded a Kd of ~10 µM.
